These results are taken from ChEMBL document CHEMBL1150205, “Justiciresinol, a new furanoid lignan from Justicia glauca” (1991).

Values after ≈ are worked out from the molar mass of the structure shown.

Common to all, as to assay type: functional
Holding throughout (settings): read-out: ED50 (the source's name)

One assay concerns HT-29. Kind of assay: Cytotoxicity against human HT-29 cells.
A further assay concerns A549. In words: Cytotoxicity against human A549 cells.
The subject of another assay is MCF7. In words: Cytotoxicity against human MCF7 cells.

On to `COc1cc([C@H]2OC[C@H](Cc3cc(OC)c(O)c(OC)c3)[C@@H]2CO)ccc1O` [JUSTICIRESINOL], for which the EC50 with HT-29 was found to be 18.3 µg/mL (≈ 46.9 µM); with A549 it was 31.3 µg/mL (≈ 80.2 µM); in the assay with MCF7, 22.3 µg/mL (≈ 57.1 µM).
